Experimental data from US9073931B2, “Liver X receptor modulators” (Vitae Pharmaceuticals, Inc., priority 2012, dated 2015).
Read-outs that look alike come from different tables or passages of the source.

Columns and labels:
LXR β LBD protein = LXR β LBD protein (Homo sapiens (Human), UniProt P55055); assay: LXR β radioligand binding assay (SPA, [3H]T0901317 competition); settings: competition with 15 nM [3H]T0901317, LXRβ LBD
LBD of LXRα = LBD of LXRα (Homo sapiens (Human), UniProt Q13133); assay: LXR luciferase transcriptional reporter gene assay, LXRα; format: cell-based; settings: HEK293 cells, Gal4-LXRα LBD, 16 h, read-out: LXRα CELL EC50
LBD of LXRβ [1] = target: T1, LBD of LXRβ (Homo sapiens (Human), UniProt P55055); assay: cell-based
LXR α LBD protein = LXR α LBD protein (Homo sapiens (Human), UniProt Q13133); assay: LXR α radioligand binding assay (SPA, [3H]T0901317 competition)
LBD of LXRβ [2] = target: T1, LBD of LXRβ
[3] = competition with 15 nM [3H]T0901317, LXRα LBD

LXR β LBD protein, sequence (P55055 222-460): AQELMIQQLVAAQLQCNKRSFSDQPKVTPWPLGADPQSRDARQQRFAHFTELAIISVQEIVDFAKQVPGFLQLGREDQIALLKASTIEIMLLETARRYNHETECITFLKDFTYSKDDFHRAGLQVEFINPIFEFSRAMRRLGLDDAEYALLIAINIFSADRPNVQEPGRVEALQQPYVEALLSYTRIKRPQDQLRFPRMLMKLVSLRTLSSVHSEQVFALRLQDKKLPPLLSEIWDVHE
T1 sequence (P55055 222-460): as above
LBD of LXRα, sequence (Q13133 209-447): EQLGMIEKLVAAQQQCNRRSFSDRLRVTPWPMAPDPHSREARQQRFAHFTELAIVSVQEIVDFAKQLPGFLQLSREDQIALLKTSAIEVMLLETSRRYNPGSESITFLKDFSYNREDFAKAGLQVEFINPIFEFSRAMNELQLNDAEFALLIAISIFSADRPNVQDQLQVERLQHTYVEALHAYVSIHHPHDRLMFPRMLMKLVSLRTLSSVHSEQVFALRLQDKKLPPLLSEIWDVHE
LXR α LBD protein, sequence (Q13133 209-447): as above

`CCOC(=O)c1cnc(N2CCn3c(nc4ccc(S(C)(=O)=O)cc43)C2C(C)C)nc1C(F)(F)F` (racemic) [Compound E3, Ethyl 2-(1-isopropyl-7-(methylsulfonyl)-3,4-dihydrobenzo[4,5]imidazo[1,2-a]pyrazin-2(1H)-yl)-4-(trifluoromethyl)pyrimidine-5-carboxylate] showed a Ki (LXR β LBD protein) of 1.16 µM, an EC50 (LBD of LXRα) of 17.3 µM and an EC50 (LBD of LXRβ [1]) of 4.62 µM. The Ki (LXR α LBD protein; [3]) was over 3.33 µM.

For `CC(C)C1c2nc3ccc(S(C)(=O)=O)cc3n2CCN1c1ncc(C(N)=O)c(C(F)(F)F)n1` (racemic) [Compound E5, 2-(1-isopropyl-7-(methylsulfonyl)-3,4-dihydrobenzo[4,5]imidazo[1,2-a]pyrazin-2(1H)-yl)-4-(trifluoromethyl)pyrimidine-5-carboxamide], the Ki (LXR β LBD protein) was over 2.5 µM, the EC50 (LBD of LXRα) was over 20 µM and the EC50 (LBD of LXRβ [1]) was 2.69 µM. The Ki (LXR α LBD protein; [3]) was over 3.33 µM.

`CC(C)[C@@H]1c2nc3cc(CO)c(S(C)(=O)=O)cc3n2CCN1c1ncc(C(=O)O)c(C(F)(F)F)n1` (single isomer, unassigned) [Compound E14a] gave a Ki (LXR β LBD protein) of over 2.5 µM, an EC50 (LBD of LXRα) of over 20 µM and an EC50 (LBD of LXRβ [1]) of 7.54 µM. The Ki (LXR α LBD protein; read-out: LXRα BINDING Ki) was over 3.33 µM.

`CC(C)[C@H]1c2nc3cc(CO)c(S(C)(=O)=O)cc3n2CCN1c1ncc(C(=O)O)c(C(F)(F)F)n1` (single isomer, unassigned) [Compound E14b] was tested, and the Ki (LXR β LBD protein) was over 2.5 µM, the EC50 (LBD of LXRα) was over 20 µM and the EC50 (LBD of LXRβ [1]) was over 20 µM. It also gave a Ki (LXR α LBD protein; read-out: LXRα BINDING Ki) of over 3.33 µM.

For `CNC(=O)c1cnc(N2CCn3c(nc4cc(CO)c(S(C)(=O)=O)cc43)[C@H]2C(C)C)nc1C(F)(F)F` (single isomer, unassigned) [Compound E16a], the EC50 (LBD of LXRα) was over 20 µM and the Ki (LXR α LBD protein; read-out: LXRα BINDING Ki) was over 3.33 µM.

In the case of `CNC(=O)c1cnc(N2CCn3c(nc4cc(CO)c(S(C)(=O)=O)cc43)[C@@H]2C(C)C)nc1C(F)(F)F` (single isomer, unassigned) [Compound E16b], the EC50 (LBD of LXRα) is reported as over 20 µM and the Ki (LXR α LBD protein; read-out: LXRα BINDING Ki) is reported as over 3.33 µM.

`CC(C)C1c2cc3cc(CO)c(S(C)(=O)=O)cc3n2CCN1c1ncc(C(C)(C)O)c(C(F)(F)F)n1` (single isomer, unassigned) [Compound E27a, 2-(2-(8-(hydroxymethyl)-1-isopropyl-7-(methylsulfonyl)-3,4-dihydropyrazino[1,2-a]indol-2(1H)-yl)-4-(trifluoromethyl)pyrimidin-5-yl)propan-2-ol] gave a Ki (LXR β LBD protein) of 0.002 µM and an EC50 (LBD of LXRβ [2]) of 0.01 µM.

For `CC(C)C1c2cc3cc(CO)c(S(C)(=O)=O)cc3n2CCN1c1ncc(C(C)(C)O)c(C(F)(F)F)n1` (single isomer, unassigned) [Compound E27b, 2-(2-(8-(hydroxymethyl)-1-isopropyl-7-(methylsulfonyl)-3,4-dihydropyrazino[1,2-a]indol-2(1H)-yl)-4-(trifluoromethyl)pyrimidin-5-yl)propan-2-ol], the Ki (LXR β LBD protein) was 0.712 µM and the EC50 (LBD of LXRβ [2]) was 1.44 µM.

Work on `Cc1nc(N2CCn3c(nc4cc(CO)c(S(C)(=O)=O)cc43)[C@H]2C(C)C)ncc1CO` [Compound E19, (R)-(2-(8-(hydroxymethyl)-1-isopropyl-7-(methylsulfonyl)-3,4-dihydrobenzo[4,5]imidazo[1,2-a]pyrazin-2(1H)-yl)-4-methylpyrimidin-5-yl)methanol] yielded a Ki (LXR β LBD protein) of over 2.5 µM, an EC50 (LBD of LXRα) of over 20 µM and an EC50 (LBD of LXRβ [1]) of over 20 µM. For the same molecule, the Ki (LXR α LBD protein; [3]) was over 3.33 µM.

With `CC(=O)c1cnc(N2CCn3c(cc4ccc(S(C)(=O)=O)cc43)[C@H]2C(C)C)nc1C(F)(F)F` [Compound E22a, (R)-1-(2-(1-isopropyl-7-(methylsulfonyl)-3,4-dihydropyrazino[1,2-a]indol-2(1H)-yl)-4-(trifluoromethyl)pyrimidin-5-yl)ethanone] the Ki (LXR β LBD protein) was 0.012 µM and the EC50 (LBD of LXRβ [2]) was 0.107 µM.

`CC(=O)c1cnc(N2CCn3c(cc4ccc(S(C)(=O)=O)cc43)[C@@H]2C(C)C)nc1C(F)(F)F` [Compound E22b, (S)-1-(2-(1-isopropyl-7-(methylsulfonyl)-3,4-dihydropyrazino[1,2-a]indol-2(1H)-yl)-4-(trifluoromethyl)pyrimidin-5-yl)ethanone] gave a Ki (LXR β LBD protein) of over 2.5 µM and an EC50 (LBD of LXRβ [2]) of 11.5 µM.

In the case of `CC(C)[C@@H]1c2cc3ccc(S(C)(=O)=O)cc3n2CCN1c1ncc(C(C)(C)O)c(C(F)(F)F)n1` [Compound E23a, (R)-2-(2-(1-isopropyl-7-(methylsulfonyl)-3,4-dihydropyrazino[1,2-a]indol-2(1H)-yl)-4-(trifluoromethyl)pyrimidin-5-yl)propan-2-ol], the Ki (LXR β LBD protein) is reported as 0.021 µM and the EC50 (LBD of LXRβ [2]) is reported as 0.306 µM.

`CC(C)[C@H]1c2cc3ccc(S(C)(=O)=O)cc3n2CCN1c1ncc(C(C)(C)O)c(C(F)(F)F)n1` [Compound E23b, (S)-2-(2-(1-isopropyl-7-(methylsulfonyl)-3,4-dihydropyrazino[1,2-a]indol-2(1H)-yl)-4-(trifluoromethyl)pyrimidin-5-yl)propan-2-ol] showed a Ki (LXR β LBD protein) of 2.44 µM and an EC50 (LBD of LXRβ [2]) of 1.34 µM.

Molecule `CC(C)[C@@H]1c2cc3ccc(S(C)(=O)=O)cc3n2CCN1c1ncc(CO)c(C(F)(F)F)n1` [Compound E25a, (R)-(2-(1-isopropyl-7-(methylsulfonyl)-3,4-dihydropyrazino[1,2-a]indol-2(1H)-yl)-4-(trifluoromethyl)pyrimidin-5-yl)methanol] has a Ki (LXR β LBD protein) of 0.006 µM and an EC50 (LBD of LXRβ [2]) of 0.083 µM.

In the case of `CC(C)[C@H]1c2cc3ccc(S(C)(=O)=O)cc3n2CCN1c1ncc(CO)c(C(F)(F)F)n1` [Compound E25b, (S)-(2-(1-isopropyl-7-(methylsulfonyl)-3,4-dihydropyrazino[1,2-a]indol-2(1H)-yl)-4-(trifluoromethyl)pyrimidin-5-yl)methanol], the Ki (LXR β LBD protein) is reported as over 2.5 µM and the EC50 (LBD of LXRβ [2]) is reported as 10.8 µM.
